Results as given in patent US11807644B2 (PMV Pharmaceuticals, Inc., priority 2020, dated 2023).

molecular target: T1, recombinant His-tag Y220C p53 DBD protein (Homo sapiens, UniProt P04637, Y220C); assay: In vitro DNA binding activity assay (TR-FRET): binding of His-tag Y220C p53 DBD to biotin-labeled consensus DNA; type: biochemical; settings: SC150 = concentration to increase DNA binding by […], His-tag Y220C p53 DBD, biotin-labeled consensus DNA
T1 construct: recombinant His-tag Y220C p53 DBD protein (amino acids #˜94-312)

Row | SMILES | Y220C SC150 (μM)
1 | CCN1CC[C@@H](Nc2cccc3c2cc(-c2noc(CNC(=O)c4ccn(C5CCCC5)c4)n2)n3CC(F)(F)F)[C@@H](F)C1 [Compound 320B, 1-cyclopentyl-N-{[3-(4-{[(3S,4R)-1-ethyl-3-fluoropiperidin-4-yl]amino}-1-(2,2,2-trifluoroethyl)-1H-indol-2-yl)-1,2,4-oxadiazol-5-yl]methyl}-1H-pyrrole-3-carboxamide] | * (* = 0 μM ≤ SC150 < 0.1 μM)
2 | C[C@H]1CN(C)CC[C@H]1Nc1cccc2c1cc(-c1noc(CNC(=O)c3cnn(C(C)(C)C)c3)n1)n2CC(F)(F)F [Compound 510B, 1-tert-butyl-N-{[3-(4-{[(3S,4R)-1,3-dimethylpiperidin-4-yl]amino}-1-(2,2,2-trifluoroethyl)-1H-indol-2-yl)-1,2,4-oxadiazol-5-yl]methyl}-1H-pyrazole-4-carboxamide] | * (* = 0 μM ≤ SC150 < 0.1 μM)
3 | COC(C)(C)c1ccc(C(=O)NCc2nc(-c3cc4c(N[C@@H]5CCNC[C@@H]5F)cccc4n3CC(F)(F)F)no2)s1 [Compound 480B] | * (* = 0 μM ≤ SC150 < 0.1 μM)
4 | CC(CF)n1cc(C(=O)NCc2nc(-c3cc4c(N[C@@H]5CCN(C)C[C@@H]5F)cccc4n3CC(F)(F)F)no2)cn1 (stereo partly drawn) [Compound 303B, N-{[3-(4-{[(3S,4R)-3-fluoro-1-methylpiperidin-4-yl]amino}-1-(2,2,2-trifluoroethyl)-1H-indol-2-yl)-1,2,4-oxadiazol-5-yl]methyl}-1-(1-fluoropropan-2-yl)-1H-pyrazole-4-carboxamide] | * (* = 0 μM ≤ SC150 < 0.1 μM)
5 | COCC1(n2ccc(C(=O)NCc3nc(-c4cc5c(N[C@@H]6CCN(C)C[C@@H]6C)cccc5n4CC(F)(F)F)no3)c2)CC1 [Compound 504B, N-{[3-(4-{[(3S,4R)-1,3-dimethylpiperidin-4-yl]amino}-1-(2,2,2-trifluoroethyl)-1H-indol-2-yl)-1,2,4-oxadiazol-5-yl]methyl}-1-[1-(methoxymethyl)cyclopropyl]-1H-pyrrole-3-carboxamide] | * (* = 0 μM ≤ SC150 < 0.1 μM)
6 | CN1CC[C@H](Nc2cccc3c2cc(-c2noc(CNC(=O)c4ccsc4)n2)n3CC(F)(F)F)[C@H](F)C1 [Compound 190B, N-{[3-(4-{[(3R,4S)-3-fluoro-1-methylpiperidin-4-yl]amino}-1-(2,2,2-trifluoroethyl)-1H-indol-2-yl)-1,2,4-oxadiazol-5-yl]methyl}thiophene-3-carboxamide] | * (* = 0 μM ≤ SC150 < 0.1 μM)
7 | CN1CC[C@@H](Nc2cccc3c2cc(-c2noc(CNC(=O)[C@@H]4C[C@H]4c4ccccc4F)n2)n3CC(F)(F)F)[C@@H](F)C1 [Compound 224B, (1R,2R)-N-{[3-(4-{[(3S,4R)-3-fluoro-1-methylpiperidin-4-yl]amino}-1-(2,2,2-trifluoroethyl)-1H-indol-2-yl)-1,2,4-oxadiazol-5-yl]methyl}-2-(2-fluorophenyl)cyclopropane-1-carboxamide] | * (* = 0 μM ≤ SC150 < 0.1 μM)
8 | CN1CC[C@@H](Nc2cccc3c2cc(-c2noc(CNC(=O)c4ccn(C5(C)CC5)c4)n2)n3CC(F)(F)F)[C@@H](F)C1 [Compound 428B, N-{[3-(4-{[(3S,4R)-3-fluoro-1-methylpiperidin-4-yl]amino}-1-(2,2,2-trifluoroethyl)-1H-indol-2-yl)-1,2,4-oxadiazol-5-yl]methyl}-1-(1-methylcyclopropyl)-1H-pyrrole-3-carboxamide] | * (* = 0 μM ≤ SC150 < 0.1 μM)
9 | CN1CC[C@@H](Nc2cccc3c2cc(-c2noc(CNC(=O)c4cnn(CCF)c4)n2)n3CC(F)(F)F)[C@@H](F)C1 [Compound 301B] | * (* = 0 μM ≤ SC150 < 0.1 μM)
10 | CN1CC[C@@H](Nc2cccc3c2cc(-c2noc(CNc4cn[nH]c4)n2)n3CC(F)(F)F)[C@@H](F)C1 [Compound 227B, N-[(3S,4R)-3-fluoro-1-methylpiperidin-4-yl]-2-(5-{[(1H-pyrazol-4-yl)amino]methyl}-1,2,4-oxadiazol-3-yl)-1-(2,2,2-trifluoroethyl)-1H-indol-4-amine] | * (* = 0 μM ≤ SC150 < 0.1 μM)
11 | CCn1ccc(C(=O)NCc2nc(-c3cc4c(N[C@@H]5CCN(C)C[C@@H]5F)cccc4n3CC(F)(F)F)no2)c1 (racemic) [Compound 179B, (+/−)-1-ethyl-N-{[3-(4-{[(3R,4S)-3-fluoro-1-methylpiperidin-4-yl]amino}-1-(2,2,2-trifluoroethyl)-1H-indol-2-yl)-1,2,4-oxadiazol-5-yl]methyl}-1H-pyrrole-3-carboxamide] | * (* = 0 μM ≤ SC150 < 0.1 μM)
12 | CCn1cccc1C(=O)NCc1nc(-c2cc3c(N[C@@H]4CCN(C)C[C@@H]4F)cccc3n2CC(F)(F)F)no1 [Compound 534B, 1-ethyl-N-{[3-(4-{[(3S,4R)-3-fluoro-1-methylpiperidin-4-yl]amino}-1-(2,2,2-trifluoroethyl)-1H-indol-2-yl)-1,2,4-oxadiazol-5-yl]methyl}-1H-pyrrole-2-carboxamide] | * (* = 0 μM ≤ SC150 < 0.1 μM)
13 | CN1CC[C@@H](Nc2cccc3c2cc(-c2noc(CNC(=O)c4cnn(C5(C)CCOCC5)c4)n2)n3CC(F)(F)F)[C@@H](F)C1 [Compound 404B, N-{[3-(4-{[(3S,4R)-3-fluoro-1-methylpiperidin-4-yl]amino}-1-(2,2,2-trifluoroethyl)-1H-indol-2-yl)-1,2,4-oxadiazol-5-yl]methyl}-1-(4-methyloxan-4-yl)-1H-pyrazole-4-carboxamide] | * (* = 0 μM ≤ SC150 < 0.1 μM)
14 | CN1CC[C@@H](Nc2cccc3c2cc(-c2noc(CNC(=O)c4cnn(-c5ccccc5)c4)n2)n3CC(F)(F)F)[C@@H](F)C1 [Compound 308B, N-{[3-(4-{1[(3S,4R)-3-fluoro-1-methylpiperidin-4-yl]amino}-1-(2,2,2-trifluoroethyl)-1H-indol-2-yl)-1,2,4-oxadiazol-5-yl]methyl}-1-phenyl-1H-pyrazole-4-carboxamide] | * (* = 0 μM ≤ SC150 < 0.1 μM)
15 | CCc1cc(C(=O)NCc2nc(-c3cc4c(N[C@@H]5CCN(C)C[C@@H]5F)cccc4n3CC(F)(F)F)no2)on1 [Compound 521B, 3-ethyl-N-{[3-(4-{[(3S,4R)-3-fluoro-1-methylpiperidin-4-yl]amino}-1-(2,2,2-trifluoroethyl)-1H-indol-2-yl)-1,2,4-oxadiazol-5-yl]methyl}-1,2-oxazole-5-carboxamide] | * (* = 0 μM ≤ SC150 < 0.1 μM)
16 | C[C@H]1C[C@H]1C(=O)NCc1nc(-c2cc3c(NC4CCN(C)CC4)cccc3n2CC(F)(F)F)no1 (racemic) [Compound 158B, (+/−)-(1R,2S)-2-methyl-N-[(3-{4-[(1-methylpiperidin-4-yl)amino]-1-(2,2,2-trifluoroethyl)-1H-indol-2-yl}-1,2,4-oxadiazol-5-yl)methyl]cyclopropane-1-carboxamide] | * (* = 0 μM ≤ SC150 < 0.1 μM)

same assay, conditions: concentration to increase DNA binding by […], incubated at either 27° C. or 29° C. for 60 min

Row | SMILES | SC150 (μM)
17 | FC(F)(F)Cn1c(-c2ccc(CNc3ccc(Cl)cc3)cc2)cc2c(NC3CCN(C4CCOCC4)CC3)cccc21 [Compound 32A, 2-(4-{[(4-chlorophenyl)amino]methyl}phenyl)-N-[1-(oxan-4-yl)piperidin-4-yl]-1-(2,2,2-trifluoroethyl)-1H-indol-4-amine] | ++ (++ = 2 μM ≤ SC150 < 5 μM)
18 | CN1CCC(NCc2ccc3c(c2)cc(-c2ccc(CNc4ccc(S(C)(=O)=O)cc4)cc2)n3CC(F)(F)F)CC1 [Compound 36A, N-{[2-(4-{[(4-methanesulfonylphenyl)amino]methyl}phenyl)-1-(2,2,2-trifluoroethyl)-1H-indol-5-yl]methyl}-1-methylpiperidin-4-amine] | ++ (++ = 2 μM ≤ SC150 < 5 μM)
